Columns and labels:
Type in all cases: in vivo, human
[1] = test system: patients suffering from FBSS (lumbar pain); test: Clinical study: pain evaluation by Numeric Rating Scales (NRS) after peridural infiltration; details: 11 FBSS patients, epidural 1 ml of 50 or 100 mg/ml, +1 week
Source text: 11 patients (7 males and 4 females), of ages ranging between 48 and 78 years, and suffering from FBSS, were studied (according to the operative diagram in FIG. 1) for a 9-month period. As criteria for inclusion in the treatment protocol were considered: • failed back surgery syndrome (FBSS) • lumbar pain present for >3 months • absence of improvement of pain with administration of oral pharmacological analgesics/opioids-based therapy; • non-eligibility for lumbar revision surgery treatment. • patients refusing treatment; • carriers of infections localized at the level of the infiltration site; • undergoing systemic infective processes; • coagulation alterations. After having been evaluated under the clinical instrumental standpoint, the patient was subjected to infiltrative treatment upon coagulation testing and replacement of oral anticoagulant therapy (possibly taken by the patient), with low molecular weight heparin. Infiltration was conducted in Day Surgery regimen, inviting the patient to have it on an empty stomach. […] The drug at issue, sodium 2-mercaptoethansulfonate, was contained in an ampoule with a 10% concentration; for each infiltration, 1 ml was collected and the concentration used was of 50 mg/ml in some cases and of 100 mg/ml in other cases. The entire infiltration procedure required 10-15 min. Of the 11 patients, 2 had already undergone 3 surgical interventions to the lumbar rachis, other 2 had undergone 2 interventions, and 7 had undergone 1 intervention. […] In particular, we asked to assign a value (comprised between 0 and 10) to pain intensity in a standing position, in horizontal posture, and while sitting; evaluation of the 3 parameters helped us in pain classification, and was aimed at determining musculoskeletal and gravity activation at different instants and the quantitative impact on pain intensity caused by the assuming of the different positions. […] To the first answer a score equal to 0 was assigned, to the second one equal to 1, and so on until the sixth answer that would be equal to 5. the score is calculated as follows: TOTAL SCORE/(5×9)×100.

[2] = test system: patients suffering from FBSS (lumbar pain); test: Clinical study: lumbar rachis functionality by Oswestry Disability Index (ODI); details: 11 FBSS patients; epidural 1 ml of 50 or 100 mg/ml; +1 week; before the procedure 52.18%; P=0.05
Source text: 11 patients (7 males and 4 females), of ages ranging between 48 and 78 years, and suffering from FBSS, were studied (according to the operative diagram in FIG. 1) for a 9-month period. As criteria for inclusion in the treatment protocol were considered: • failed back surgery syndrome (FBSS) • lumbar pain present for >3 months • absence of improvement of pain with administration of oral pharmacological analgesics/opioids-based therapy; • non-eligibility for lumbar revision surgery treatment. • patients refusing treatment; • carriers of infections localized at the level of the infiltration site; • undergoing systemic infective processes; • coagulation alterations. After having been evaluated under the clinical instrumental standpoint, the patient was subjected to infiltrative treatment upon coagulation testing and replacement of oral anticoagulant therapy (possibly taken by the patient), with low molecular weight heparin. […] In particular, we asked to assign a value (comprised between 0 and 10) to pain intensity in a standing position, in horizontal posture, and while sitting; evaluation of the 3 parameters helped us in pain classification, and was aimed at determining musculoskeletal and gravity activation at different instants and the quantitative impact on pain intensity caused by the assuming of the different positions. […]

[3] = test system: patients suffering from FBSS (lumbar pain); test: Clinical study: functional improvement by Odom's criteria; details: out of 11 FBSS patients; after epidural infiltration
Source text: 11 patients (7 males and 4 females), of ages ranging between 48 and 78 years, and suffering from FBSS, were studied (according to the operative diagram in FIG. 1) for a 9-month period. As criteria for inclusion in the treatment protocol were considered: • failed back surgery syndrome (FBSS) • lumbar pain present for >3 months • absence of improvement of pain with administration of oral pharmacological analgesics/opioids-based therapy; • non-eligibility for lumbar revision surgery treatment. • patients refusing treatment; • carriers of infections localized at the level of the infiltration site; • undergoing systemic infective processes; • coagulation alterations. After having been evaluated under the clinical instrumental standpoint, the patient was subjected to infiltrative treatment upon coagulation testing and replacement of oral anticoagulant therapy (possibly taken by the patient), with low molecular weight heparin. Infiltration was conducted in Day Surgery regimen, inviting the patient to have it on an empty stomach. […] The drug at issue, sodium 2-mercaptoethansulfonate, was contained in an ampoule with a 10% concentration; for each infiltration, 1 ml was collected and the concentration used was of 50 mg/ml in some cases and of 100 mg/ml in other cases. The entire infiltration procedure required 10-15 min. Of the 11 patients, 2 had already undergone 3 surgical interventions to the lumbar rachis, other 2 had undergone 2 interventions, and 7 had undergone 1 intervention. In particular, 4 had undergone an herniectomy, 2 an hemilaminectomy, 2 an herniectomy plus an hemilaminectomy and 3 a vertebral stabilization intervention. The levels involved were comprised between L1 and S1, with an extension range of 2 to 5 levels. Each patient was subjected, on average, to 2 (range comprised between 1 and 4) peridural infiltrations of sodium 2 mercaptoethane sulfonate (FIG. 2).

SMILES: O=S(=O)([O-])CCS.[Na+] [sodium 2-mercaptoethane sulfonate, Sodium 2-mercaptoethane sulfonate]
- mean pain NRS (0-10) in a sitting position following the procedure ([1]; on average 2 infiltrations, pre-procedure mean 7.0, P=0.002): 5.55
- mean pain NRS (0-10) in a horizontal position following the procedure ([1]; pre-procedure mean 6.64, P=0.001): 4.82
- mean pain NRS (0-10) standing following the procedure ([1]; pre-procedure mean 7.36, P=0.01): 5.73
- Oswestry Disability Index (ODI), average after the procedure [2]: 41.64%
- Odom's criteria: number of patients with Excellent result [3]: 0 patients
- Odom's criteria: number of patients with Fair result [3]: 4 patients
- Odom's criteria: number of patients with Good result [3]: 7 patients
- Odom's criteria: number of patients with Poor result [3]: 0 patients
- Odom's criteria: share of patients with Fair result [3]: 36.4%
- Odom's criteria: share of patients with Good result [3]: 63.6%

From patent US20130085182A1, “SODIUM 2-MERCAPTOETHANE SULFONATE FOR USE IN THE TREATMENT OF LUMBAR PAIN” (UNIVERSITA' CAMPUS BIO-MEDICO DI ROMA, priority 2010, published 2013)
